US7977364B2, “Indazoles, benzisoxazoles and benzisothiazoles and their use as estrogenic agents” (Laboratoire Thermamex, priority 2004, dated 2011)

How the values were obtained:
[1] = test system: human endometrial adenocarcinoma Ishikawa cells; experiment: Estrogenic and anti-estrogenic activities in vitro: induction of alkaline phosphatase (APase) activity; assay type: cell-based; settings: for EC50: Homo sapiens, Ishikawa, 96 h, compound alone, four days, ND = not detected, read-out: Estrogenic activity EC50 (nM) ± S.E.M; for estrogenic effect in alkaline phosphatase activity in the Ishikawa cell model: in words
Procedure: The estrogenic and anti-estrogenic potentials of new compounds were evaluated using the induction of alkaline phosphatase (APase) activity, an estrogen specific response in human endometrial adenocarcinoma Ishikawa cells (Botella J., J Steroid Biochem Molec Biol, 1995, 55: 77-84; Littlefield et al., Endocrinology, 1990, 127: 2757-2762).
Ishikawa cells were routinely grown as monolayers in Dulbecco's Modified Eagle's medium (DMEM) containing 4 mM Glutamax I and supplemented with 10% of decomplemented fetal calf serum (dFCS) and antibiotics. They were maintained in a humidified atmosphere of 5% CO2 and 95% air, at 37±0.1° C. Stocks were performed once a week to maintain continuous exponential growth.
For studies, Ishikawa cells were plated into 96-well microplates. The next day, the medium was changed to a phenol red-free DMEM containing 5% dFCS stripped of endogenous estrogens by dextran coated charcoal treatment.
At the end of the incubation period, APase activity was assayed by a method involving the hydrolysis of p-nitrophenyl phosphate to p-nitrophenol at pH 9.8 and spectrophotometric determination of the product at 405 nm.
In brief, the microplates were first rinsed twice with cold phosphate buffered solution and then placed at −80° C. for at least 15 minutes. After thawing at room temperature for 5-10 minutes, the plates were put on ice and 50 μl ice-cold solution containing 5 mM p-nitrophenyl phosphate was added to each well. The plates were warmed to room temperature to allow for the development of the enzymatic reaction (t0). After a 15 to 60 minute incubation period, the intensity of the yellow color generated by the production of p-nitrophenol was measured into each well at 405 nm using a microplate reader (Wallac, model 1420 Victor^2). […] Sigmoidal dose-response curves were plotted and EC50 (estrogenic effect) and IC50 (anti-estrogenic effect) values were calculated for each compound.

[2] = test system: human breast cancer cell line MCF-7; experiment: Proliferative activity in vitro (ATP luminescence, 6 days); assay type: cell-based; settings: Homo sapiens, MCF7, 144 h; for activity at 1 µM: MCF-7, 10^−6 M, read-out: Effect at 10^−6 M (% of control); for activity at 1 µM / activity at 0.01 µM: six days; for activity at 0.01 µM: MCF-7, 10^−8 M, read-out: Effect at 10^−8 M (% of control); for EC50: MCF-7, six days, read-out: Cell proliferation EC50 (nM) ± S.E.M
Procedure: The proliferative effect of the compounds of the invention was evaluated on human breast cancer cell line MCF-7 by measuring the number of viable cells after 6 days of treatment.
MCF-7 cells were routinely cultured as monolayers in Dulbecco's modified Eagle's medium (DMEM) containing 4 mM Glutamax and 4.5 g/l glucose and supplemented with 5% (v/v) decomplemented fetal calf serum (dFCS) and antibiotics.
Cells were plated at 2.10^6 cells/75 cm^2 flasks and incubated at 37° C. in a humidified atmosphere containing 5% CO2. They were passaged once weekly to maintain continuous exponential growth. Forty eight hours before the start of an experiment, near-confluent cells were changed to a phenol red free DMEM containing 5% steroid-stripped dFCS by dextran coated charcoal treatment (DCC-DMEM). On the day of the experiment, cells were harvested by brief exposure to trypsin and plated in DCC-DMEM in 96-well microplates at a density of 4.10^3 cells/well. The next day, the medium was renewed and test compounds, diluted appropriately in estrogen-free DMEM, were added and incubated for six days. […] At the end of the incubation period, cell proliferation was evaluated by quantitation of the cellular ATP content which signals the presence of metabolically active cells.
The assay, based on the ATP-dependent luciferase reaction, enables generation of a luminescent signal proportional to the amount of ATP present. As there is a linear relationship between the amount of ATP and the number of viable cells present in culture, the luminescent signal allowed to precisely evaluate cell proliferation (Crouch, S. P. M. et al. J. Immunol. Meth., 1993, 160, 81; Kangas, L. et al. Med. Biol. 1984, 62, 338; Petty, R. D. et al. J. Biolum. Chemilum. 1995, 10, 29).
In brief, the microplates were inverted to discard the culture medium and 100 μl of fresh medium was added into each well. The microplates were equilibrated at room temperature for approximately 30 minutes. 100 μl of luciferase reagent was added into each well and contents were mixed for 2 minutes to induce cell lysis. The plates were incubated at room temperature for 10 minutes to stabilize luminescence signal.
Luminescence was recorded using a microplate reader (Wallac, model 1420 Victor^2) and results were expressed as percentage of the control luminescence. Sigmoidal dose-response curves were plotted and EC50 values were calculated for each compound in order to evaluate their proliferative potency.

Prepubescent female rats = experiment: Estrogenic / uterotrophic activity in vivo (uterus wet weight); design: species or system rat; settings: Rattus norvegicus, po, 72 h, Table 4; orally 3 mg/rat/day for 3 days; read-out: % stimulation vs vehicle (uterus weight)
Procedure: Prepubescent female rats were orally treated at 3 mg/rat/day for 3 days. On the day following the last treatment, uteri were removed and wet weights were recorded.
The results are expressed as % of stimulation of uterus weight in comparison with vehicles. […]
Prepubescent female rats were orally treated with 0.3; 1; 3 or 10 mg/rat/day for 3 days. On the day following the last treatment, uteri were removed and wet weights were recorded.

[3] = target: T1, purified full-length recombinant human ERα (Homo sapiens, UniProt P03372); experiment: Estrogen receptor α competitive radiometric binding assay ([3H]-E2); settings: for RBA (%) Mean ± S.E.M, ER α: ratio of IC50s of E2 and competitor, E2 set at 100%
T1 sequence (P03372 1-595): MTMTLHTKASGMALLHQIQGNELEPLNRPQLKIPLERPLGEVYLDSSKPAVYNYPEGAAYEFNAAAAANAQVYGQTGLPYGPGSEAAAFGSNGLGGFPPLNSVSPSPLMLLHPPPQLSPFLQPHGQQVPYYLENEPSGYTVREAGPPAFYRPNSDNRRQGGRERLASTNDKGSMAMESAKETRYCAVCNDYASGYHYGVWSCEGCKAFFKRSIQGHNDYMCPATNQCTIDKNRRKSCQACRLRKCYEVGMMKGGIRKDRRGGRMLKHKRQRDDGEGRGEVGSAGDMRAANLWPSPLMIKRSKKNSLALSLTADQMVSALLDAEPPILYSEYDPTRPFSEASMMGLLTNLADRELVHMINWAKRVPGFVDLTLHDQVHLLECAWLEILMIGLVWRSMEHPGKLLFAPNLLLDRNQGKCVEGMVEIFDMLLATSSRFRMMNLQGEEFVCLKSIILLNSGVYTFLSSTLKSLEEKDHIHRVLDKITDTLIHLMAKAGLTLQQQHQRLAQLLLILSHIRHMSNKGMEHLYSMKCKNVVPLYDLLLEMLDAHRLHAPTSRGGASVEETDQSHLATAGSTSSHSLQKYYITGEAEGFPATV

[4] = target: purified full-length recombinant human ERβ (Homo sapiens, UniProt Q92731); experiment: Estrogen receptor β competitive radiometric binding assay ([3H]-E2); settings: for RBA (%) Mean ± S.E.M, ER β: ratio of IC50s of E2 and competitor, E2 set at 100%; for R (IC50s) αβ: ratio of the IC50 for ERα to the IC50 for ERβ; for selectivity for the human recombinant estrogen receptor β: in words
purified full-length recombinant human ERβ, sequence (Q92731 whole entry): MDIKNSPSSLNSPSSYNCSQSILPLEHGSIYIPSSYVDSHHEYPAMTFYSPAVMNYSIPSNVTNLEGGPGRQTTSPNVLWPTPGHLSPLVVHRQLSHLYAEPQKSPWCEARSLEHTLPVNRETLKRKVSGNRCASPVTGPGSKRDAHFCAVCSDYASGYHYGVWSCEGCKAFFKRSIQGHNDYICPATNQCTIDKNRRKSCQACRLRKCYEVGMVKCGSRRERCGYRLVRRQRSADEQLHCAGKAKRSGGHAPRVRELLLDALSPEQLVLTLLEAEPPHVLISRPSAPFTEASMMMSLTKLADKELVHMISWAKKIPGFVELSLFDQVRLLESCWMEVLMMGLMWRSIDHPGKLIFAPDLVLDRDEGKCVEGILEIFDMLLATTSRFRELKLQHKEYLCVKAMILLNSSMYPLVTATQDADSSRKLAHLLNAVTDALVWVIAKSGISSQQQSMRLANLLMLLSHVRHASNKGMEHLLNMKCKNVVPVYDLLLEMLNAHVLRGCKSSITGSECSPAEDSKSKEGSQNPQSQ
Procedure: Relative binding affinities (RBA) were determined by competitive radiometric binding assays, using purified full-length recombinant human ERα and ERβ (PanVera, Madison, Wis.). […] After shaking for a few seconds and centrifugation at 1500 g and 4° C. for 10 minutes, 150 μl/well of Optiphase ‘Super Mix’ scintillation liquid was mixed with 50 μl of supernatant of each sample and the radioactivity was measured in a MicroBeta counter (Wallac, Turku, Finland). Data were evaluated by a sigmoidal dose-response curve (Prism, GraphPad Software Inc.) to estimate the concentration of competitor at half-maximal specific binding (IC50). […] The selectivity for ERα and ERβ was obtained from the ratio R of the IC50 for ERα to the IC50 for ERβ for each test compound.

Oc1ccc2c(C3CCCCC3)n[nH]c2c1 [Ex 24, 3-cyclohexyl-1H-indazol-6-ol]
EC50 [1]: 136.3 ± 1.2 nM
activity at 1 µM [2]: 143%
activity at 0.01 µM [2]: 89.9%
EC50 [2]: 18.5 ± 1.8 nM
change in vivo at 3 mg (Prepubescent female rats): 101%
melting point: 147 °C
IC50 [3]: 0.159 ± 0.0237 µM
RBA (%) Mean ± S.E.M, ER α [3]: 1.2 ± 0.2%
IC50 [4]: 0.0102 ± 0.0009 µM
RBA (%) Mean ± S.E.M, ER β [4]: 24.6 ± 4.3%
R (IC50s) αβ [4]: 15.6

Cl.Oc1ccc2c(C34CC5CC(CC(C5)C3)C4)n[nH]c2c1 [Ex 31, 3-(1-adamantyl)-1H-indazol-6-ol, hydrochloride]
EC50 [1]: 30.8 ± 0.5 nM
estrogenic effect in alkaline phosphatase activity in the Ishikawa cell model [1]: weak estrogenic effect
activity at 1 µM [2]: 146%
activity at 0.01 µM [2]: 139%
EC50 [2]: 3.7 ± 0.7 nM
change in vivo at 3 mg (Prepubescent female rats): 468%
IC50 [3]: 0.119 ± 0.0452 µM
RBA (%) Mean ± S.E.M, ER α [3]: 3.1 ± 0.8%
IC50 [4]: 0.0362 ± 0.0187 µM
selectivity for the human recombinant estrogen receptor β [4]: marked selectivity
RBA (%) Mean ± S.E.M, ER β [4]: 17.7 ± 5.1%
R (IC50s) αβ [4]: 3.3

NS(=O)(=O)n1nc(C2CCCCC2)c2ccc(O)cc21 [Ex 40, 3-cyclohexyl-6-hydroxy-1H-indazole-1-sulfonamide]
EC50 [1]: 132 ± 4.7 nM
activity at 1 µM [2]: 152%
activity at 0.01 µM [2]: 107%
EC50 [2]: 11.5 ± 2.8 nM
change in vivo at 3 mg (Prepubescent female rats): 41%
melting point: 162 °C
IC50 [3]: 1.48 ± 1.18 µM
RBA (%) Mean ± S.E.M, ER α [3]: 0.1 ± 0.02%
IC50 [4]: 0.188 ± 0.034 µM
RBA (%) Mean ± S.E.M, ER β [4]: 1.0 ± 0.2%
R (IC50s) αβ [4]: 7.9

Oc1ccc2c(C3CCCCCC3)noc2c1 [Ex 65, 3-cycloheptyl-1,2-benzisoxazol-6-ol]
EC50 [1]: 51.7 ± 6.2 nM
activity at 1 µM [2]: 260%
activity at 0.01 µM [2]: 123%
EC50 [2]: 27.6 ± 2 nM
change in vivo at 3 mg (Prepubescent female rats): 84%
melting point: 156 °C
IC50 [3]: 0.0753 ± 0.0054 µM
RBA (%) Mean ± S.E.M, ER α [3]: 2.5 ± 0.6%
IC50 [4]: 0.0202 ± 0.0042 µM
RBA (%) Mean ± S.E.M, ER β [4]: 13.2 ± 3.1%
R (IC50s) αβ [4]: 3.7

Oc1ccc2c(C3CCCCC3)noc2c1 [Ex 66, 3-cyclohexyl-1,2-benzisoxazol-6-ol]
EC50 [1]: 221 ± 14 nM
estrogenic effect in alkaline phosphatase activity in the Ishikawa cell model [1]: weak estrogenic effect
activity at 1 µM [2]: 149%
activity at 0.01 µM [2]: 100%
EC50 [2]: 25.4 ± 4 nM
change in vivo at 3 mg (Prepubescent female rats): 31%
melting point: 181 °C
IC50 [3]: 0.26 ± 0.0401 µM
RBA (%) Mean ± S.E.M, ER α [3]: 1.1 ± 0.2%
IC50 [4]: 0.0446 ± 0.0077 µM
selectivity for the human recombinant estrogen receptor β [4]: marked selectivity
RBA (%) Mean ± S.E.M, ER β [4]: 9.4 ± 3.1%
R (IC50s) αβ [4]: 5.8

Oc1ccc(Cc2noc3cc(O)ccc23)cc1 [Ex 73, 3-(4-hydroxybenzyl)-1,2-benzisoxazol-6-ol]
estrogenic effect in alkaline phosphatase activity in the Ishikawa cell model [1]: weak estrogenic effect
activity at 1 µM [2]: 134%
activity at 0.01 µM [2]: 94.2%
EC50 [2]: 365 ± 126 nM
change in vivo at 3 mg (Prepubescent female rats): 52%
IC50 [3]: 2.91 ± 0.318 µM
RBA (%) Mean ± S.E.M, ER α [3]: 0.1 ± 0.0%
IC50 [4]: 0.485 ± 0.158 µM
selectivity for the human recombinant estrogen receptor β [4]: marked selectivity
RBA (%) Mean ± S.E.M, ER β [4]: 1.0 ± 0.3%
R (IC50s) αβ [4]: 6.0

N#CC(Cc1ccc(O)cc1)c1noc2cc(O)ccc12 (centres unmarked) [Ex 80, 2-(6-hydroxy-1,2-benzisoxazol-3-yl)-3-(4-hydroxyphenyl) propanenitrile]
EC50 [1]: 147 ± 39.9 nM
activity at 1 µM [2]: 147%
activity at 0.01 µM [2]: 110%
EC50 [2]: 45.2 ± 25.6 nM
change in vivo at 3 mg (Prepubescent female rats): 70%
IC50 [3]: 0.0675 ± 0.005 µM
RBA (%) Mean ± S.E.M, ER α [3]: 3.4 ± 0.4%
IC50 [4]: 0.0075 ± 0.0007 µM
RBA (%) Mean ± S.E.M, ER β [4]: 43.0 ± 7.8%
R (IC50s) αβ [4]: 9.0

N#CC(Cc1ccc(F)cc1)c1noc2cc(O)ccc12 (centres unmarked) [Ex 84, 2-(6-hydroxy-1,2-benzisoxazol-3-yl)-3-(4-fluorophenyl) propanenitrile]
EC50 [1]: 322 ± 20 nM
estrogenic effect in alkaline phosphatase activity in the Ishikawa cell model [1]: weak estrogenic effect
activity at 1 µM [2]: 286%
activity at 0.01 µM [2]: 97%
EC50 [2]: 77.9 ± 4.1 nM
change in vivo at 3 mg (Prepubescent female rats): 24%
melting point: 152 °C
IC50 [3]: 2.3 ± 0.446 µM
RBA (%) Mean ± S.E.M, ER α [3]: 0.1 ± 0.03%
IC50 [4]: 0.123 ± 0.0259 µM
selectivity for the human recombinant estrogen receptor β [4]: marked selectivity
RBA (%) Mean ± S.E.M, ER β [4]: 2.5 ± 0.4%
R (IC50s) αβ [4]: 18.7
